# Assay results published in US11412737B2, “Mixtures of beflubutamid or optically enriched forms thereof with a second herbicide” (FMC Corporation, priority 2016, dated 2022).
# Legend:
# velvetleaf (IPOHE) = assay: pre-emergence test, weed control; assay type: in vivo; conditions: pre-emergent, 21 DAT, rate g ai/ha by row: r4 94, r5 125, r6 250, r7 125, r8 250, r9 500, r10 94+125, r11 125+125, r12 94+250, r13 125+250, r14 94+500, r15 125+500
# Experimental: (§1) Test compositions containing the test compounds were diluted with water to provide the appropriate test rate concentrations.
# (§2) For pre-emergence testing, four disposable fiber flats (6 inch by 10 inch) for each rate of application of each herbicide solution were filled with top soil, to which seeds of each species were planted in furrows made by a template pressed on the top of the soil. The furrows were covered with soil after planting the seed and were watered well before application of the test compounds.
# (§3) Fiber flats designated for treatment were placed in a spray chamber having a static platform and a movable sprayer and the height of the spray nozzle was 10.5 inches above the soil level. Once the sprayer was calibrated using water for spray volume of 30 gallons per acre, flats were sprayed with sprayer at a speed to receive a coverage equivalent of 30 gallons per acre. The application rates are those shown in the Tables below for the individual herbicidal solutions and the herbicide compositions of this invention. The pre-emergence flats were immediately placed in the greenhouse and watered lightly after treatment. Thereafter they were regularly watered and fertilized for the duration of the test.
# (§4) The control of weeds was evaluated in each experimental test at 21 for wheat and 28 days after treatment (DAT) for all species. Data were analyzed using Minitab software at 95% confidence interval. The results, shown as an average of the replications, were compared with results observed in untreated control flats in the same tests. Percent control was determined by a method similar to the 0 to 100 rating system disclosed in “Research Methods in Weed Science,” 2nd ed., B. Truelove, Ed.; Southern Weed Science Society; Auburn University, Auburn, Ala., 1977. The rating system is as follows in Table 1.
# Velvetleaf (ABUTH) = assay: pre-emergence test, weed control; assay type: in vivo, Abutilon theophrasti; conditions: pre-emergent, 21 DAT, rate g ai/ha by row: r4 94, r5 125, r6 250, r7 125, r8 250, r9 500, r10 94+125, r11 125+125, r12 94+250, r13 125+250, r14 94+500, r15 125+500
# Experimental: as §1, §2, §3, §4
# Wild oat (AVEFA) = assay: pre-emergence test, weed control; assay type: in vivo, Avena fatua; conditions: pre-emergent; for percentage of weed control, Wild Oat AVEFA: 21 DAT, rate g ai/ha by row: r4 94, r5 125, r6 250, r7 125, r8 250, r9 500, r10 94+125, r11 125+125, r12 94+250, r13 125+250, r14 94+500, r15 125+500; for percentage of weed control, AVEFA: 28 DAT
# Experimental: as §1, §2, §3, §4
# Green foxtail (SETVI) [1] = assay: post-emergence test, weed control; assay type: in vivo, Setaria viridis; conditions: post-emergent, 28 DAT; BFL at 187.5 g, PTX at 890 g, combination of both
# Experimental: as §1
# For post-emergence testing, seeds of each species for each rate of application of each herbicide solution were planted in 7.5 cm×7.5 cm plastic pots filled with potting soil. The seeds were germinated and the resulting plants were allowed to grow in a greenhouse until they reached a growth stage, such as height, suitable for testing. Treatments were applied using compressed air in a track spray chamber at 30 gallons/acre (280 L/ha) using a TeeJet 8001E nozzle at 40 psi (2.76 bars). Pots of post-emergent treated plants were returned to the greenhouse and not watered for 24 hours after treatment. Thereafter they were regularly watered and fertilized for the duration of the test.
# as §4
# Blackgrass (ALOMY) = assay: pre-emergence test, weed control; assay type: in vivo; conditions: pre-emergent, 28 DAT
# Experimental: as §1, §2, §3, §4
# Yellow foxtail (SETLU) = assay: pre-emergence test, weed control; assay type: in vivo; conditions: pre-emergent, 28 DAT
# Experimental: as §1, §2, §3, §4
# Green foxtail (SETVI) [2] = assay: pre-emergence test, weed control; assay type: in vivo, Setaria viridis; conditions: pre-emergent, 28 DAT
# Experimental: as §1, §2, §3, §4
# Jimsonweed (DATST) = assay: pre-emergence test, weed control; assay type: in vivo, Datura stramonium; conditions: pre-emergent, 28 DAT; BFL at 62.5 g, PTX at 90 g, combination of both
# Experimental: as §1, §2, §3, §4
# [3] = system: Common lambsquarters (CHEAL); assay: pre-emergence test, weed control; assay type: in vivo, Chenopodium album; conditions: pre-emergent, 28 DAT, (+)-BFL >95% e.e.; rate g ai/ha by row: r6 62.5, r7 125, r8 62.5, r9 125, r10 222, r11 445, r12 22.5, r13 45, r14 62.5+62.5, r15 125+62.5, r16 62.5+125, r17 125+125, r18 62.5+222, r19 125+222, r20 62.5+445, r21 125+445, r22 62.5+22.5, r23 125+22.5, r24 62.5+45, r25 125+45
# Experimental: as §1, §2, §3, §4
# Palmer amaranth (AMAPA) = assay: pre-emergence test, weed control; assay type: in vivo, Amaranthus palmeri; conditions: pre-emergent, 28 DAT, (−)-BFL >95% e.e., rate g ai/ha by row: r6 62, r7 125, r8 125, r9 250, r10 445, r11 890, r12 45, r13 90, r14 62+125, r15 125+125, r16 62+250, r17 125+250, r18 62+445, r19 125+445, r20 62+890, r21 125+890, r22 62+45, r23 125+45, r24 62+90, r25 125+90
# Experimental: as §1, §2, §3, §4
# Large crabgrass (DIGSA) = assay: pre-emergence test, weed control; assay type: in vivo; conditions: pre-emergent, 28 DAT, rate g ai/ha by row: r4 94, r5 50, r6 100, r7 52.5, r8 70, r9 94+52.5, r10 94+70, r11 50+52.5, r12 50+70, r13 100+52.5, r14 100+70
# Experimental: as §1, §2, §3, §4
# crop and weed species = assay: pre-emergence test, several crop and weed species together; assay type: in vivo; conditions: pre-emergent, 28 DAT (Tables 16 and 17), >95% e.e.
# Experimental: as §1, §2
# Fiber flats designated for treatment were placed in a spray chamber having a static platform and a movable sprayer and the height of the spray nozzle was 10.5 inches above the soil level. Once the sprayer was calibrated using water for spray volume of 30 gallons per acre, flats were sprayed with sprayer at a speed to receive a coverage equivalent of 30 gallons per acre. […]
# The control of weeds was evaluated in each experimental test at 21 for wheat and 28 days after treatment (DAT) for all species. Data were analyzed using Minitab software at 95% confidence interval. […] Percent control was determined by a method similar to the 0 to 100 rating system disclosed in “Research Methods in Weed Science,” 2nd ed., B. Truelove, Ed.; Southern Weed Science Society; Auburn University, Auburn, Ala., 1977. […]
# [4] = (+)-BFL >95% e.e., rate g ai/ha by row: r6 62.5, r7 125, r8 62.5, r9 125, r10 222, r11 445, r12 22.5, r13 45, r14 62.5+62.5, r15 125+62.5, r16 62.5+125, r17 125+125, r18 62.5+222, r19 125+222, r20 62.5+445, r21 125+445, r22 62.5+22.5, r23 125+22.5, r24 62.5+45, r25 125+45, 222 g ai/ha
# [5] = (+)-BFL >95% e.e., rate g ai/ha by row: r6 62.5, r7 125, r8 62.5, r9 125, r10 222, r11 445, r12 22.5, r13 45, r14 62.5+62.5, r15 125+62.5, r16 62.5+125, r17 125+125, r18 62.5+222, r19 125+222, r20 62.5+445, r21 125+445, r22 62.5+22.5, r23 125+22.5, r24 62.5+45, r25 125+45, 445 g ai/ha
# [6] = (−)-BFL >95% e.e., rate g ai/ha by row: r6 62, r7 125, r8 125, r9 250, r10 445, r11 890, r12 45, r13 90, r14 62+125, r15 125+125, r16 62+250, r17 125+250, r18 62+445, r19 125+445, r20 62+890, r21 125+890, r22 62+45, r23 125+45, r24 62+90, r25 125+90, 445 g ai/ha
# [7] = (−)-BFL >95% e.e., rate g ai/ha by row: r6 62, r7 125, r8 125, r9 250, r10 445, r11 890, r12 45, r13 90, r14 62+125, r15 125+125, r16 62+250, r17 125+250, r18 62+445, r19 125+445, r20 62+890, r21 125+890, r22 62+45, r23 125+45, r24 62+90, r25 125+90, 890 g ai/ha
# [8] = (+)-BFL >95% e.e., rate g ai/ha by row: r6 62.5, r7 125, r8 62.5, r9 125, r10 222, r11 445, r12 22.5, r13 45, r14 62.5+62.5, r15 125+62.5, r16 62.5+125, r17 125+125, r18 62.5+222, r19 125+222, r20 62.5+445, r21 125+445, r22 62.5+22.5, r23 125+22.5, r24 62.5+45, r25 125+45
# [9] = (−)-BFL >95% e.e., rate g ai/ha by row: r6 62, r7 125, r8 125, r9 250, r10 445, r11 890, r12 45, r13 90, r14 62+125, r15 125+125, r16 62+250, r17 125+250, r18 62+445, r19 125+445, r20 62+890, r21 125+890, r22 62+45, r23 125+45, r24 62+90, r25 125+90, 62 g ai/ha
# [10] = (−)-BFL >95% e.e., rate g ai/ha by row: r6 62, r7 125, r8 125, r9 250, r10 445, r11 890, r12 45, r13 90, r14 62+125, r15 125+125, r16 62+250, r17 125+250, r18 62+445, r19 125+445, r20 62+890, r21 125+890, r22 62+45, r23 125+45, r24 62+90, r25 125+90, 125 g ai/ha
smiles,measurement,setting,value
CCOCN(C(=O)CCl)c1c(C)cccc1CC [Acetochlor],"percentage of weed control, Morningglory IPOHE",velvetleaf (IPOHE); 125 g ai/ha,5%
same,"percentage of weed control, Morningglory IPOHE",velvetleaf (IPOHE); 250 g ai/ha,6%
same,"percentage of weed control, Morningglory IPOHE",velvetleaf (IPOHE); 500 g ai/ha,8%
same,"percentage of weed control, Velvetleaf ABUTH",Velvetleaf (ABUTH); 125 g ai/ha,10%
same,"percentage of weed control, Velvetleaf ABUTH",Velvetleaf (ABUTH); 250 g ai/ha,11%
same,"percentage of weed control, Wild Oat AVEFA",Wild oat (AVEFA); 125 g ai/ha,13%
same,"percentage of weed control, Wild Oat AVEFA",Wild oat (AVEFA); 250 g ai/ha,11%
"CCOCCN(C(=O)CCl)C(=C(C)C)c1ccccc1 [PTX, Pethoxamid]",control of green foxtail,Green foxtail (SETVI) [1],4%
same,"percentage of weed control, ALOMY",Blackgrass (ALOMY); [4],70%
same,"percentage of weed control, ALOMY",Blackgrass (ALOMY); [5],96%
same,"percentage of weed control, ALOMY",Blackgrass (ALOMY); [6],59%
same,"percentage of weed control, ALOMY",Blackgrass (ALOMY); [7],83%
same,"percentage of weed control, SETLU",Yellow foxtail (SETLU); [8],99%
same,"percentage of weed control, SETLU",Yellow foxtail (SETLU); [6],99%
same,"percentage of weed control, SETLU",Yellow foxtail (SETLU); [7],100%
same,"percentage of weed control, SETVI",Green foxtail (SETVI) [2]; [8],99%
same,"percentage of weed control, SETVI",Green foxtail (SETVI) [2]; [6],98%
same,"percentage of weed control, SETVI",Green foxtail (SETVI) [2]; [7],100%
same,control of jimsonweed,Jimsonweed (DATST),4%
same,"percentage of weed control, AVEFA",Wild oat (AVEFA); [4],84%
same,"percentage of weed control, AVEFA",Wild oat (AVEFA); [5],92%
same,"percentage of weed control, AVEFA",Wild oat (AVEFA); [6],89%
same,"percentage of weed control, AVEFA",Wild oat (AVEFA); [7],92%
same,"percentage of weed control, CHEAL",[3],100%
same,"percentage of weed control, AMAPA",Palmer amaranth (AMAPA); 445 g ai/ha,98%
same,"percentage of weed control, AMAPA",Palmer amaranth (AMAPA); 890 g ai/ha,100%
O=C(Nc1ccc(F)cc1F)c1cccnc1Oc1cccc(C(F)(F)F)c1 [Diflufenican],"percentage of weed control, DIGSA",Large crabgrass (DIGSA); 50 g ai/ha,18%
same,"percentage of weed control, DIGSA",Large crabgrass (DIGSA); 100 g ai/ha,30%
"CC[C@H](Oc1ccc(F)c(C(F)(F)F)c1)C(=O)NCc1ccccc1 [(−)-BFL, (2S)-2-[4-fluoro-3-(trifluoromethyl)phenoxy]-N-(phenylmethyl)butanamide]","percentage of weed control, ALOMY",Blackgrass (ALOMY); [9],19%
same,"percentage of weed control, ALOMY",Blackgrass (ALOMY); [10],32%
same,"percentage of weed control, SETLU",Yellow foxtail (SETLU); [9],86%
same,"percentage of weed control, SETLU",Yellow foxtail (SETLU); [10],100%
same,"percentage of weed control, SETVI",Green foxtail (SETVI) [2]; [9],80%
same,"percentage of weed control, SETVI",Green foxtail (SETVI) [2]; [10],97%
same,herbicidal activity of the enantiomers compared,crop and weed species,the more active enantiomer
same,"percentage of weed control, AVEFA",Wild oat (AVEFA); [9],7%
same,"percentage of weed control, AVEFA",Wild oat (AVEFA); [10],11%
same,"percentage of weed control, AMAPA",Palmer amaranth (AMAPA); 62 g ai/ha,70%
same,"percentage of weed control, AMAPA",Palmer amaranth (AMAPA); 125 g ai/ha,97%
